15 molecules from US9579325B2, “Modulators of TNF-α signaling” (Genzyme Corporation, priority 2000, dated 2017) can be followed below.

Molecules are shown by their SMILES. pIC50: −log10 of the molar value.

For one assay, the system named is L929 cells. Put plainly: TNF High Throughput Screen (TNF-α driven apoptosis assay). Type of assay: cell-based, mouse. The note with it: Mus musculus, compound at 1 μM, human TNF-α + actinomycin D, read-out: TNFα % Inh. @ 1 μM. From the text:
Description of Table V: The results shown in Table V were obtained using the TNF-α assays performed as described in the protocols entitled “Method for TNF High Throughput Screen” and “Method for VCAM High Throughput Screen”, which are detailed below. These assays measure a cellular response to TNF-α stimulation, and the data published in the table are expressed as percentage inhibitions. Percentage inhibition is computed on a scale of 0 to 100% where 0 percent inhibition means the compound has no effect in the assay (the response is indistinguishable from TNF-α treatment alone), and 100% inhibition means that when the compound is present at the stated concentration, the response in the assay is the same as if TNF-α were not added. These two assays measure two different outcomes of TNF-α treatment, cell death and Vascular Cell Adhesion Molecule (VCAM) expression, and capture two of TNF-α's many biological effects. TNF-α induced apoptosis is a mechanism by which TNF-α production during immune/inflammatory responses can lead to direct cellular and tissue damage. TNF-α VCAM expression in endothelial cells is a response that allows leukocytes to leave the blood and enter a site of immune/inflammatory response. Both of these activities could lead to pathology in immune/inflammatory diseases. In the first column of the table, the percentage inhibition of the TNF-α driven apoptosis assay when the compounds are tested at 1 μM concentration is presented. The second column in the table lists the IC50 for the compound, a standard measure using a dilution series in the assay, and fitting a sigmoidal curve to the resulting dose-response curve. The IC50 is the concentration (derived analytically from the sigmoidal function) at which the compound would inhibit 50% of the response in the assay. The third and fourth column list the corresponding analysis for the TNF-α driven VCAM assay. In Table VI, data corresponding to the data in column 1 of Table V is shown, with human cells replacing the mouse cells used in the high throughput screen. […] As a consequence, the compounds will have use in treating more than one TNF-α mediated condition, and may be selected according to the manner in which the condition manifests. This corresponds to the use of these compounds in the treatment of human disease.
TNF High Throughput Screen.
• 1. Plate 4×10^4 L929 cells in 100 μl of complete EMEM in Costar 96 well plates in PM. • 2. The next day, pretreat with compound, inhibitor and control vehicle for 2 hours. • 3. After 2 hours pretreatment, add 10 μl 5 ng/ml human TNF-α and actinomycin D (40 μg/ml final concentration). • 4. Incubate overnight. • 5. In AM, remove supernatant. • 6. Wash on a plate washer (0.9% NaCl). • 7. Add 100 μl Crystal Violet 0.1% in 20% ETOH. • 8. Incubate at RT for 10 minutes. • 9. Wash on plate washer. • 10. Air dry wells at 37° C. • 11. Add 100 μl of methanol to each well. • 12. Shake plates on orbital shaker and read at 595 nm on plate reader. VCAM High Throughput Screen: Protocol: • 1. Plate Primary human umbilical vein endothelial cells at 1.8×10^4 cells/well in a 96-well tissue culture plate. • 2. Return Plates to 37° C. incubator for 48-72 hours before assay. • 3. On assay day, aspirate wells and add 1804, of endothelial growth cell medium (EGM) to each well. • 4. Add Compound to each well. • 5. Shake plates for 3 minutes. • 6. Incubate plate for 1 hour at 37° C. • 7. Add Tumor Necrosis Factor (TNF) at 1.0 ng/ml final concentration. • 8. Shake plates for 3 minutes. • 9. Incubate plate for 2 hours at 37° C. • 10. Remove plate from incubator and wash plate 3 times with phosphate buffered saline (PBS) using a plate washer. • 11. Add anti-VCAM antibody at 0.5 μg/ml final concentration. • 12. Incubate at 4° C. overnight. • 13. Wash 3 times with PBS on plate washer. • 14. Add goat anti-mouse horseradish peroxidase conjugate. • 15. Incubate at room temperature for one hour. • 16. Wash 3 times with PBS on plate washer. • 17. […]
Consider `COc1ccc(Oc2cccc(C(C(=O)NCc3cc(OC)c(OC)c(OC)c3)N(C(=O)CC(c3ccccc3)c3ccccc3)c3ccccc3C(N)=O)c2)cc1` (stereo not drawn) [Compound 57], for which the inhibition at 1 µM stood at 56%.
Take `N#Cc1cccc(C(C(=O)NCCC(c2ccccc2)c2ccccc2)N(CCc2c[nH]cn2)C(=O)CCC2CCCCC2)c1` (stereo not drawn) [Compound 69]: the inhibition at 1 µM turned out to be 61%.
Still for that read-out and setting: the same measure for `N#Cc1cccc(C(C(=O)NCC(c2ccccc2)c2ccccc2)N(CCc2c[nH]cn2)C(=O)C(O)Cc2c[nH]c3ccccc23)c1` (stereo not drawn) [Compound 82]: 55%; for `N#Cc1cccc(C(C(=O)NC(c2ccccc2)c2ccccc2)N(CCc2c[nH]cn2)C(=O)c2cccs2)c1` (stereo not drawn) [Compound 90]: 51%.
For `N#Cc1cccc(C(C(=O)NC(c2ccccc2)c2ccccc2)N(CCc2c[nH]cn2)C(=O)c2ccccc2Oc2ccccc2)c1` (stereo not drawn) [Compound 89], the inhibition at 1 µM came to 56%.
Turning to `COc1ccc(CCNC(=O)C(c2cccc(C#N)c2)N(CCc2c[nH]cn2)C(=O)c2cccc(Cl)c2)cc1` (stereo not drawn) [Compound 79], the inhibition at 1 µM stood at 62%.
On the same count and under the same terms, the result for `CCCCc1ccc(C(=O)N(CCc2c[nH]cn2)C(C(=O)NCCC(c2ccccc2)c2ccccc2)c2ccccc2)cc1` (stereo not drawn) [Compound 65] reads 52%; that for `N#Cc1cccc(C(C(=O)NCC(c2ccccc2)c2ccccc2)N(CCc2c[nH]cn2)C(=O)c2cccc(F)c2)c1` (stereo not drawn) [Compound 83], 56%.

The same assay, now with this note: Mus musculus, human TNF-α + actinomycin D, read-out: TNFα IC50.
With `N#Cc1cccc(C(C(=O)NCC(c2ccccc2)C2CCCC2)N(CCc2c[nH]cn2)C(=O)c2ccccc2C(=O)c2ccccc2)c1` (stereo not drawn) [Compound 25], the pIC50 is 5.80.
For `CN(C)CCN(C(=O)c1ccccc1C(=O)c1ccccc1)C(Cc1ccccc1)C(=O)NCC(c1ccccc1)c1ccccc1` (stereo not drawn) [Compound 41], the pIC50 was 5.19.
Take `COc1ccc(CC(C(=O)NCC(c2ccccc2)c2ccccc2)N(CCc2c[nH]cn2)C(=O)c2ccccc2C(=O)c2ccccc2)cc1` (stereo not drawn) [Compound 35]: the pIC50 was 5.58.
On the same count and under the same terms, the same measure for `Cc1ccccc1C(C(=O)NCC(c1ccccc1)c1ccccc1)N(CCc1c[nH]cn1)C(=O)c1ccccc1C(=O)c1ccccc1` (stereo not drawn) [Compound 6]: 5.97.
Regarding `Cc1ccc(C(C(=O)NCC(c2ccccc2)c2ccccc2)N(CCc2c[nH]cn2)C(=O)c2ccccc2C(=O)c2ccccc2)cc1` (stereo not drawn) [Compound 8], the pIC50 was 5.79.
Same read-out and setting: the result for `N#Cc1cccc(C(C(=O)NCC(c2ccccc2)c2ccccc2)N(CCc2c[nH]cn2)C(=O)c2ccccc2COc2ccccc2)c1` (stereo not drawn) [Compound 53] reads 5.15; that for `N#Cc1cccc(C(C(=O)NCC(c2ccccc2)c2ccccc2)N(CCc2c[nH]cn2)C(=O)c2ccccc2C(=O)c2ccccn2)c1` (stereo not drawn) [Compound 15], 6.41.

The pIC50 is −log10 of the IC50, conventionally taken in molar units.
